We go through twelve molecules from patent US20260022142A1, “MACROCYCLIC IMMUNOMODULATORS” (Bristol-Myers Squibb Company, priority 2022, published 2026).

Numbered stars: 1 amine (or outer) side, 2 acyl side, 3 side chain; on linkers, the order of the positions; unused ones are H or OH. Bridge positions count the residues as written; N and C are the ends. Square brackets hold non-standard residues; d marks the D form. Peptide text beside a SMILES is read from it. * marks the point of attachment. ξ: configuration not given here. Phe(4-COOH) = N[C@@H](Cc1ccc(C(=O)O)cc1)C(=O)O; Bip = N[C@@H](Cc1ccc(-c2ccccc2)cc1)C(=O)O; Phe(3-F) = N[C@@H](Cc1cccc(F)c1)C(=O)O; Phe(3-Me) = Cc1cccc(C[C@H](N)C(=O)O)c1; X8 = CC(C)(F)C(N[*:1])C(=O)[*:2]; Cha = N[C@@H](CC1CCCCC1)C(=O)O; Thr(3ξ) = CC(O)[C@H](N)C(=O)O; Carboxymethyl = O=C(O)C*; Orn = NCCC[C@H](N)C(=O)O; Aun = NCCCCCCCCCCC(=O)O; Dab = NCC[C@H](N)C(=O)O; Dap = NC[C@H](N)C(=O)O; AEEA = NCCOCCOCC(=O)O; ξDab = NCCC(N)C(=O)O

The target in the test is T1, PD-1/PD-L1 interaction (PE-labeled human PD-L1-Ig binding to Jurkat cell line over-expressing human PD-1) (Homo sapiens, UniProt Q15116).
T1 construct: expressed in transfected cells; host or cells: Jurkat
T1 sequence (Q15116 25-288): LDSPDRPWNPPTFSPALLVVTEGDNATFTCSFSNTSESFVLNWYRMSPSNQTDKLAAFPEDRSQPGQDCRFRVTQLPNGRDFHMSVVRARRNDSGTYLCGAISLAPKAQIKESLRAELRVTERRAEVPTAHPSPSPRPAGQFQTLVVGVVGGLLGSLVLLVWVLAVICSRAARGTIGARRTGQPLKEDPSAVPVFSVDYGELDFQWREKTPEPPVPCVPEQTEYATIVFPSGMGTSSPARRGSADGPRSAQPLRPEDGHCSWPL
As to the kind of experiment: Jurkat-PD-1 Cell Binding High-Content Screening Assay (CBA). Type of test: cell-based. Conditions: Jurkat cell line over-expressing human PD-1; PE-labeled PD-L1-Ig 20 nM final; read-out: Jurkat hPD1-PDL1 IC50. The gist of the method: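 Jurkat-hPD-1 cells, DMEM/10% FCS; cpd 2 h 37° C; PE-PD-L1-Ig 20 nM final, 1 h; 4% PFA fix + Hoechst 33342, 3× dPBS wash; high-content imaging read-out.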
Turning to `Cc1cccc(C[C@@H]2NC(=O)[C@H](CC(=O)O)NC(=O)[C@H](Cc3ccc(OCC(=O)O)cc3)NC(=O)[C@H](CN)NC(=O)CSC[C@@H](C(=O)N[C@@H](CCN)C(=O)NCCOCCOCC(=O)NCCCCCCCCCCC(=O)O)NC(=O)[C@H](CCCN)NC(=O)[C@H](C(C)C)NC(=O)[C@H](CC3CCCCC3)NC(=O)[C@H](CCN)NC(=O)[C@@H](CC(C)C)NC(=O)[C@H](CCCN)NC(=O)[C@H](Cc3ccc(O)cc3)NC(=O)[C@H](Cc3ccc(-c4ccccc4)cc3)NC(=O)[C@H](Cc3cccc(F)c3)NC2=O)c1` [Compound 2262] ({CH2CO}-[Dap]Y(Carboxymethyl)D[Phe(3-Me)][Phe(3-F)][Bip]Y[Orn][dL][Dab][Cha]V[Orn]C[Dab][AEEA][Aun]-OH; thioether N-14), the IC50 was determined as 8.3 nM.

For the molecule `Cc1cccc(C[C@@H]2NC(=O)[C@H](CC(=O)O)NC(=O)[C@H](Cc3ccc(OCC(=O)O)cc3)NC(=O)[C@H](Cc3ccc(OCC(=O)O)cc3)NC(=O)CSC[C@@H](C(=O)N[C@@H](CCN)C(=O)NCCCCCCCCCCC(=O)O)NC(=O)[C@H](C(C)O)NC(=O)[C@H](C(C)C)NC(=O)[C@H](CC3CCCCC3)NC(=O)[C@H](CCN)NC(=O)[C@@H](CC(C)C)NC(=O)[C@H](CCCN)NC(=O)[C@H](Cc3ccc(OCC(=O)O)cc3)NC(=O)[C@H](Cc3ccc(-c4ccccc4)cc3)NC(=O)[C@H](C(C)C)NC2=O)c1` (stereo partly drawn) [Compound 2263] ({CH2CO}-Y(Carboxymethyl)Y(Carboxymethyl)D[Phe(3-Me)]V[Bip]Y(Carboxymethyl)[Orn][dL][Dab][Cha]V[Thr(3ξ)]C[Dab][Aun]-OH; thioether N-14), the IC50 stood at 38.2 nM.

Consider `Cc1cccc(C[C@@H]2NC(=O)[C@H](CC(=O)O)NC(=O)[C@H](Cc3ccc(OCC(=O)O)cc3)NC(=O)[C@H](CCCNC(=N)N)NC(=O)CSC[C@@H](C(=O)N[C@@H](CCN)C(=O)NCCCCCCCCCCC(=O)O)NC(=O)[C@H]([C@@H](C)O)NC(=O)C(C(C)(C)F)NC(=O)[C@H](CC3CCCCC3)NC(=O)[C@H](CCN)NC(=O)[C@@H](CC(C)C)NC(=O)[C@H](CCCN)NC(=O)[C@H](Cc3ccc(OCC(=O)O)cc3)NC(=O)[C@H](Cc3ccc(-c4ccccc4)cc3)NC(=O)[C@H](Cc3ccc(O)cc3)NC2=O)c1` (stereo partly drawn) [Compound 2264] ({CH2CO}-RY(Carboxymethyl)D[Phe(3-Me)]Y[Bip]Y(Carboxymethyl)[Orn][dL][Dab][Cha][X8]TC[Dab][Aun]-OH; thioether N-14), for which the IC50 was found to be 13.1 nM.

As to `CC(C)C[C@H]1NC(=O)[C@H](CCCN)NC(=O)[C@H](Cc2ccc(O)cc2)NC(=O)[C@H](Cc2ccc(-c3ccccc3)cc2)NC(=O)[C@H](Cc2ccc(O)cc2)NC(=O)[C@H](Cc2c[nH]c3ccccc23)NC(=O)[C@H](CC(=O)O)NC(=O)[C@H](Cc2ccc(C(=O)O)cc2)NC(=O)[C@H](Cc2ccc(OCC(=O)O)cc2)NC(=O)CSC[C@@H](C(=O)N[C@@H](CCN)C(=O)NCCOCCOCC(=O)NCCCCCCCCCCC(=O)O)NC(=O)[C@H](CCCCN)NC(=O)[C@H](Cc2ccc(O)cc2)NC(=O)[C@H](CC2CCCCC2)NC(=O)[C@H](CCN)NC1=O` [Compound 2501] ({CH2CO}-Y(Carboxymethyl)[Phe(4-COOH)]DWY[Bip]Y[Orn][dL][Dab][Cha]YKC[Dab][AEEA][Aun]-OH; thioether N-14), the IC50 came out at 28.4 nM.

Take `CC(C)C[C@H]1NC(=O)[C@H](CCCN)NC(=O)[C@H](Cc2ccc(O)cc2)NC(=O)[C@H](Cc2ccc(-c3ccccc3)cc2)NC(=O)[C@H](Cc2ccc(O)cc2)NC(=O)[C@H](Cc2c[nH]c3ccccc23)NC(=O)[C@H](CC(=O)O)NC(=O)[C@H](Cc2ccc(OCC(=O)O)cc2)NC(=O)[C@H](Cc2ccc(OCC(=O)O)cc2)NC(=O)CSC[C@@H](C(=O)N[C@@H](CCN)C(=O)NCCOCCOCC(=O)NCCCCCCCCCCC(=O)O)NC(=O)[C@H](CCCNC(=N)N)NC(=O)[C@H](Cc2ccc(O)cc2)NC(=O)[C@H](CC2CCCCC2)NC(=O)[C@H](CCN)NC1=O` [Compound 2502] ({CH2CO}-Y(Carboxymethyl)Y(Carboxymethyl)DWY[Bip]Y[Orn][dL][Dab][Cha]YRC[Dab][AEEA][Aun]-OH; thioether N-14): the IC50 is 21.2 nM.

Consider `CC(C)C[C@H]1NC(=O)[C@H](CCCN)NC(=O)[C@H](Cc2ccc(O)cc2)NC(=O)[C@H](Cc2ccc(-c3ccccc3)cc2)NC(=O)[C@H](Cc2ccc(O)cc2)NC(=O)[C@H](Cc2c[nH]c3ccccc23)NC(=O)[C@H](CC(=O)O)NC(=O)[C@H](Cc2ccc(OCC(=O)O)cc2)NC(=O)[C@H](CN)NC(=O)CSC[C@@H](C(=O)N[C@@H](CCN)C(=O)NCCOCCOCC(=O)NCCCCCCCCCCC(=O)O)NC(=O)[C@H](CCCCN)NC(=O)[C@H](Cc2ccc(O)cc2)NC(=O)[C@H](CC2CCCCC2)NC(=O)[C@H](CCN)NC1=O` [Compound 2503] ({CH2CO}-[Dap]Y(Carboxymethyl)DWY[Bip]Y[Orn][dL][Dab][Cha]YKC[Dab][AEEA][Aun]-OH; thioether N-14), for which the IC50 stood at 39.9 nM.

Turning to `Cc1cccc(C[C@@H]2NC(=O)[C@H](CC(=O)O)NC(=O)[C@H](Cc3ccc(OCC(=O)O)cc3)NC(=O)[C@H](CN)NC(=O)CSC[C@@H](C(=O)N[C@@H](CCN)C(=O)NCCOCCOCC(=O)NCCCCCCCCCCC(=O)O)NC(=O)[C@H](CN)NC(=O)[C@H](Cc3ccc(O)cc3)NC(=O)[C@H](CC3CCCCC3)NC(=O)[C@H](CCN)NC(=O)[C@@H](CC(C)C)NC(=O)[C@H](CCCN)NC(=O)[C@H](Cc3ccc(O)cc3)NC(=O)[C@H](Cc3ccc(-c4ccccc4)cc3)NC(=O)[C@H](Cc3ccc(O)cc3)NC2=O)c1` [Compound 2504] ({CH2CO}-[Dap]Y(Carboxymethyl)D[Phe(3-Me)]Y[Bip]Y[Orn][dL][Dab][Cha]Y[Dap]C[Dab][AEEA][Aun]-OH; thioether N-14), the IC50 amounted to 37.4 nM.

Turning to `Cc1cccc(C[C@@H]2NC(=O)[C@H](CC(=O)O)NC(=O)[C@H](Cc3ccc(OCC(=O)O)cc3)NC(=O)[C@H](CN)NC(=O)CSC[C@@H](C(=O)N[C@@H](CCN)C(=O)NCCOCCOCC(=O)NCCCCCCCCCCC(=O)O)NC(=O)[C@H](CCCN)NC(=O)[C@H](Cc3ccc(O)cc3)NC(=O)[C@H](CC3CCCCC3)NC(=O)[C@H](CCN)NC(=O)[C@@H](CC(C)C)NC(=O)[C@H](CCCN)NC(=O)[C@H](Cc3ccc(O)cc3)NC(=O)[C@H](Cc3ccc(-c4ccccc4)cc3)NC(=O)[C@H](Cc3ccc(O)cc3)NC2=O)c1` [Compound 2505] ({CH2CO}-[Dap]Y(Carboxymethyl)D[Phe(3-Me)]Y[Bip]Y[Orn][dL][Dab][Cha]Y[Orn]C[Dab][AEEA][Aun]-OH; thioether N-14), the IC50 was 20.9 nM.

As for `Cc1cccc(C[C@@H]2NC(=O)[C@H](CC(=O)O)NC(=O)[C@H](Cc3ccc(OCC(=O)O)cc3)NC(=O)[C@H](CN)NC(=O)CSC[C@@H](C(=O)N[C@@H](CCN)C(=O)NCCOCCOCC(=O)NCCCCCCCCCCC(=O)O)NC(=O)[C@H](CCCNC(=N)N)NC(=O)[C@H](Cc3ccc(O)cc3)NC(=O)[C@H](CC3CCCCC3)NC(=O)[C@H](CCN)NC(=O)[C@@H](CC(C)C)NC(=O)[C@H](CCCN)NC(=O)[C@H](Cc3ccc(O)cc3)NC(=O)[C@H](Cc3ccc(-c4ccccc4)cc3)NC(=O)[C@H](Cc3ccc(O)cc3)NC2=O)c1` [Compound 2506] ({CH2CO}-[Dap]Y(Carboxymethyl)D[Phe(3-Me)]Y[Bip]Y[Orn][dL][Dab][Cha]YRC[Dab][AEEA][Aun]-OH; thioether N-14), the IC50 is 32.4 nM.

Consider `CC(C)C[C@H]1NC(=O)[C@H](CCCN)NC(=O)[C@H](Cc2ccc(O)cc2)NC(=O)[C@H](Cc2ccc(-c3ccccc3)cc2)NC(=O)[C@H](Cc2ccc(O)cc2)NC(=O)[C@H](Cc2c[nH]c3ccccc23)NC(=O)[C@H](CC(=O)O)NC(=O)[C@H](Cc2ccc(C(=O)O)cc2)NC(=O)[C@H](Cc2ccc(OCC(=O)O)cc2)NC(=O)CSC[C@@H](C(=O)N[C@@H](CCN)C(=O)NCCCCCCCCCCC(=O)O)NC(=O)[C@H](CCCCN)NC(=O)[C@H](Cc2ccc(O)cc2)NC(=O)[C@H](CC2CCCCC2)NC(=O)[C@H](CCN)NC1=O` [Compound 2507] ({CH2CO}-Y(Carboxymethyl)[Phe(4-COOH)]DWY[Bip]Y[Orn][dL][Dab][Cha]YKC[Dab][Aun]-OH; thioether N-14), for which the IC50 worked out at 72.1 nM.

`CC(C)C[C@H]1NC(=O)[C@H](CCCN)NC(=O)[C@H](Cc2ccc(O)cc2)NC(=O)[C@H](Cc2ccc(-c3ccccc3)cc2)NC(=O)[C@H](Cc2ccc(O)cc2)NC(=O)[C@H](Cc2c[nH]c3ccccc23)NC(=O)[C@H](CC(=O)O)NC(=O)[C@H](Cc2ccc(OCC(=O)O)cc2)NC(=O)[C@H](Cc2ccc(OCC(=O)O)cc2)NC(=O)CSC[C@@H](C(=O)NC(CCN)C(=O)NCCCCCCCCCCC(=O)O)NC(=O)[C@H](CCCNC(=N)N)NC(=O)[C@H](Cc2ccc(O)cc2)NC(=O)[C@H](CC2CCCCC2)NC(=O)[C@H](CCN)NC1=O` (stereo partly drawn) [Compound 2508] ({CH2CO}-Y(Carboxymethyl)Y(Carboxymethyl)DWY[Bip]Y[Orn][dL][Dab][Cha]YRC[ξDab][Aun]-OH; thioether N-14): the IC50 is 132 nM.

For the molecule `CC(C)C[C@H]1NC(=O)[C@H](CCCN)NC(=O)[C@H](Cc2ccc(O)cc2)NC(=O)[C@H](Cc2ccc(-c3ccccc3)cc2)NC(=O)[C@H](Cc2ccc(O)cc2)NC(=O)[C@H](Cc2c[nH]c3ccccc23)NC(=O)[C@H](CC(=O)O)NC(=O)[C@H](Cc2ccc(OCC(=O)O)cc2)NC(=O)[C@H](CN)NC(=O)CSC[C@@H](C(=O)N[C@@H](CCN)C(=O)NCCCCCCCCCCC(=O)O)NC(=O)[C@H](CCCCN)NC(=O)[C@H](Cc2ccc(O)cc2)NC(=O)[C@H](CC2CCCCC2)NC(=O)[C@H](CCN)NC1=O` [Compound 2509] ({CH2CO}-[Dap]Y(Carboxymethyl)DWY[Bip]Y[Orn][dL][Dab][Cha]YKC[Dab][Aun]-OH; thioether N-14), the concentration for half-maximal inhibition (IC50) was found to be 59.8 nM.

A word on the IC50: it is the point on the concentration scale where inhibition reaches its midpoint.
